Assay results taken from US10100027B2, “Benzofuran analogue as NS4B inhibitor” (priority 2014, dated 2018).

Assays:
Assay type in all cases: cell-based
[1] = tested on: HCV genotype 1a (HCV-1a) replicon cells; assay: HCV genotype 1a replicon cell assay (luciferase, Bright-Glo); details: Hepatitis C virus, 72 h, HCV-1a (H77) replicon cells, 3 days
Procedure: (§1) The EC50 and CC50 values of anti-HCV compounds were determined by HCV genotype 1a (HCV-1a) and 1b (HCV-1b) stable transfected replication (replicon) cells. The source of genotype 1a replicon is H77 clones containing K1691R, K2040R and S2204I adaptive mutations. The source of genotype 1b replicon is Con1 clones containing E1202G, T1280I and K1846T adaptive mutations.
(§2) HCV 1a (HCV-1a) and 1b (HCV-1b) gene subtype replicon system contains the related HCV gene subtype non-structural protein gene, G418 resistance gene NEO and luciferase gene, which results in that HCV related protein and luciferase can be stably expressed in cells. By detecting the level of expression of luciferase gene, the level of HCV replication can be determined. Therefore, the system is used as a model for screening the activity of anti-HCV compound in vitro.
(§3) The compound powder was dissolved in 100% DMSO. Then the compound was diluted 5 times with 6 points, and added into the cell plate with Echo liquid handler. Ensure the final concentration of DMSO was 0.5%. Each compound was tested in duplicate.
(§4) 4) Diluting cells to 8×10^4 cells/mL with the culture medium, adding the diluted cells into the compound-containing 96-well plate (Greiner, Cat. #655090) (100 μL/well, 8000 cells/well) with automatic liquid separator (Thermo Scientific). Then place into a 37° C., 5% CO2 incubator for 3 days. Cell control well: no compound, only containing 0.5% DMSO.
(§5) 6) Then adding luciferase substrate Bright-Glo, after incubation for 5 minutes, detecting the luciferase activity by microplate reader Envison (wavelength>700 nm); analyzing the anti-HCV inhibitory activity of the compounds according to luminescence data, which was used to calculate EC50 values.
(§6) The EC50 or CC50 values were obtained by nonlinear fitting regression on inhibition percentage (inh %) data with GraphPad Prism software.

[2] = Cytotoxicity in HCV replicon cells (Cell Titer-fluor)
Procedure: as §1, §3, §4
5) Adding fluorescence substrate Cell Titer-fluor to the cell well, after incubation for 30 minutes, detecting the signal by microplate reader Envison (Ex at 405 nm and read at 515 nm). The effect of the compounds on the cytotoxicity of HCV replicon cells was analyzed according to the fluorescence data, which was used to calculate the CC50 values.
as §6

[3] = tested on: HCV genotype 1b (HCV-1b) replicon cells; assay: HCV genotype 1b replicon cell assay (luciferase, Bright-Glo); details: Hepatitis C virus, 72 h, HCV-1b (Con1) replicon cells, 3 days
Procedure: as §1, §2, §3, §4, §5, §6

SMILES	EC50 [1] [nM]	CC50 at 3 days [2] [nM]	EC50 [3] [nM]
N#Cc1c(C(=O)N2CCN(N3CCOC3=O)CC2)oc2c(C(F)(F)F)cc(C3CC3)cc12 [YD_0250]	0.1 to 100	> 3000	0.1 to 100
O=C(Nc1ccc(Cl)cn1)C1CCN(C(=O)c2oc3c(C(F)(F)F)cc(C4CC4)cc3c2Cl)CC1 [YD_0327]	100 to 1000	> 3000	1000 to 5000
CC1CN(C(=O)C2CCN(C(=O)c3oc4c(C(F)(F)F)cc(C5CC5)cc4c3Cl)CC2)CCN1 (stereo not drawn) [YD_0326]	100 to 1000	> 3000	1000 to 5000
Cc1nnc(C23CCC(NC(=O)c4oc5c(C(F)(F)F)cc(C(C)C)cc5c4Cl)(CC2)CC3)o1 [YD_0059]	0.1 to 100	> 3000	100 to 1000
C[C@H]1COCCN1C(=O)C1CCN(C(=O)c2oc3c(C(F)(F)F)cc(C4CC4)cc3c2Cl)CC1 [YD_0311]	100 to 1000	> 3000	100 to 1000
CC1CN(C)CCN1C(=O)C1CCN(C(=O)c2oc3c(C(F)(F)F)cc(C4CC4)cc3c2Cl)CC1 (stereo not drawn) [YD_0321]	100 to 1000	> 3000	1000 to 5000
Cc1cc(C(F)(F)F)c2nc(C(=O)N3CCN(C(C)(C)C)C(=O)N3)c(Cl)n2c1 [YA_0368]	0.1 to 100	> 3000	100 to 1000
CCN(C)C(=O)C1CCN(C(=O)c2oc3c(C(F)(F)F)cc(C4CC4)cc3c2Cl)CC1 [YD_0304]	100 to 1000	> 3000	0.1 to 100
O=C(c1oc2c(C(F)(F)F)cc(C3CC3)cc2c1Cl)N1CCCN(N2CCOC2=O)CC1 [YD_0279]	0.1 to 100	> 3000	0.1 to 100
CC1(C(N)=O)CN(C(=O)C2CCN(C(=O)c3oc4c(C(F)(F)F)cc(C5CC5)cc4c3Cl)CC2)C1 [YD_0348]	100 to 1000	> 3000	1000 to 5000
O=C(c1oc2c(C(F)(F)F)cc(C3CC3)cc2c1Cl)N1CCN(N2CCOC2=O)C(=O)C1 [YD_0219]	0.1 to 100	> 3000	0.1 to 100
O=C(c1nc2c(C(F)(F)F)cc(C3CC3)cn2c1Cl)N1CCN(C2CCC(F)(F)CC2)C(=O)N1 [YA_0366]	0.1 to 100	> 3000	0.1 to 100
O=C(c1oc2c(C(F)(F)F)cc(C3CC3)cc2c1Cl)N1CCC(C(=O)N2CC(F)(F)C2)CC1 [YD_0349]	100 to 1000	> 3000	100 to 1000
O=C(c1oc2c(F)cc(C3CC3)cc2c1Cl)N1CCN(N2CCOC2=O)CC1 [YD_0245]	0.1 to 100	> 3000	0.1 to 100
O=C(O)C1CCN1C(=O)C1CCN(C(=O)c2oc3c(C(F)(F)F)cc(C4CC4)cc3c2Cl)CC1 (stereo not drawn) [YD_0351]	100 to 1000	> 3000	1000 to 5000
NC1CN(C(=O)C2CCN(C(=O)c3oc4c(C(F)(F)F)cc(C5CC5)cc4c3Cl)CC2)C1 [YD_0346]	100 to 1000	> 3000	100 to 1000
CC1CN(C(=O)C2CCN(C(=O)c3oc4c(C(F)(F)F)cc(C5CC5)cc4c3Cl)CC2)CCN1C (stereo not drawn) [YD_0325]	100 to 1000	> 3000	1000 to 5000
CN(C(=O)C1CCN(C(=O)c2oc3c(C(F)(F)F)cc(C4CC4)cc3c2Cl)CC1)c1ccc(F)cn1 [YD_0329]	100 to 1000	> 3000	100 to 1000
NC(=O)C1CN(C(=O)C2CCN(C(=O)c3oc4c(C(F)(F)F)cc(C5CC5)cc4c3Cl)CC2)C1 [YD_0353]	100 to 1000	> 3000	1000 to 5000
